In US12653858B2, “Herbal composition, preparation method thereof and method for preventing or treating respiratory disorder by administering the same” (priority 2021, dated 2026):

Experiments:
[1] = tested on: ACE2; experiment: ACE2 degradation in WI-38 cells (cycloheximide time course, BafA1 lysosome inhibition); format: cell-based, human; conditions: WI-38 cells pretreated with BafA1 10 μM 30 min, then JGF 10 μg/mL 2 h
Method: Actin was used as the internal control. […] Actin was used as the internal control.
For example, it was examined whether JGF-induced ACE2 degradation is dependent on proteasome or lysosomal systems. Initially, the half-life of ACE2 in WI-38 cells was analyzed following treatment with cycloheximide (CHX), which is a ribosome inhibitor that blocks protein synthesis.

[2] = tested on: SARS-CoV-2 S-mediated membrane fusion; experiment: SARS-CoV-2 spike-mediated cell-cell fusion (syncytium formation) assay; format: cell-based

| Compound | ACE2 level after JGF treatment with lysosome inhibitor [1] | Formation of syncytium [2] |
| --- | --- | --- |
| CO/C1=C\C(C)=C\[C@@H](C)[C@@H](O)[C@@H](C)C/C(C)=C/C=C/[C@H](OC)[C@@H]([C@@H](C)[C@@H](O)[C@H](C)[C@@]2(O)C[C@@H](O)[C@H](C)[C@@H](C(C)C)O2)OC1=O [BafA1] | recovered the ACE2 level | – |
| CN(C)C(=O)COC(=O)Cc1ccc(OC(=O)c2ccc(NC(=N)N)cc2)cc1 [camostat] | – | inhibition of syncytium formation |
